Experiments:
Test in all cases: relative viability (nuclei count vs DMSO), 5 days (fraction); higher = more cells survive
[1] = compound: Cn1cc(-c2cnn3c(N)c(Br)c([C@@H]4CCCNC4)nc23)cn1 + CCNC(=O)c1noc(-c2cc(C(C)C)c(O)cc2O)c1-c1ccc(CN2CCOCC2)cc1 [Luminespib] (partner 0.01 µM)
Outline: (§1)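 Dosing by pin tool came one day after lung cancer cell lines were seeded in 1536-well plates, using either one drug or a fixed anchor-drug dose plus five library-drug doses (not always all listed) in √10 steps. After 5 days, nuclei were counted on 4× images. Relative viability is treated-well nuclei count divided by vehicle-well nuclei count, and values are medians of duplicate plates.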

[2] = compound: Cn1cc(-c2cnn3c(N)c(Br)c([C@@H]4CCCNC4)nc23)cn1 + CC(C)C[C@H](NC(=O)[C@H](Cc1ccccc1)NC(=O)c1cnccn1)B(O)O [Bortezomib] (partner 0.002 µM)
Outline: as §1

[3] = compound: Cn1cc(-c2cnn3c(N)c(Br)c([C@@H]4CCCNC4)nc23)cn1 + Cc1nc(Nc2ncc(C(=O)Nc3c(C)cccc3Cl)s2)cc(N2CCN(CCO)CC2)n1 [Dasatinib] (partner 0.075 µM)
Outline: as §1

[4] = compound: Cn1cc(-c2cnn3c(N)c(Br)c([C@@H]4CCCNC4)nc23)cn1 + CC(=O)c1c(C)c2cnc(Nc3ccc(N4CCNCC4)cn3)nc2n(C2CCCC2)c1=O [Palbociclib] (partner 0.5 µM)
Outline: as §1

Cell Line	relative viability ([1]; first compound 0.05 µM)	relative viability ([1]; first compound 0.1581 µM)	relative viability ([1]; first compound 0.5 µM)	relative viability ([1]; first compound 1.581 µM)	relative viability ([1]; first compound 5 µM)	relative viability ([2]; first compound 0.05 µM)	relative viability ([2]; first compound 0.1581 µM)	relative viability ([2]; first compound 0.5 µM)	relative viability ([2]; first compound 1.581 µM)	relative viability ([2]; first compound 5 µM)	relative viability ([3]; first compound 0.05 µM)	relative viability ([3]; first compound 0.1581 µM)	relative viability ([3]; first compound 0.5 µM)	relative viability ([3]; first compound 1.581 µM)	relative viability ([3]; first compound 5 µM)	relative viability ([4]; first compound 0.05 µM)	relative viability ([4]; first compound 0.1581 µM)	relative viability ([4]; first compound 0.5 µM)	relative viability ([4]; first compound 1.581 µM)	relative viability ([4]; first compound 5 µM)
NCI-H661	0.953	0.953	0.991	0.829	0.729	0.805	0.781	0.698	0.731	0.587	0.898	0.962	0.891	0.82	0.432	0.395	0.371	0.387	0.389	0.344
NCI-H1993	1.03	0.887	0.543	0.666	0.567	1.09	1.16		0.931	0.846	0.619	0.601	0.545	0.549	0.507	0.645	0.704	0.584	0.564	0.471
NCI-H1437	1.13	1.2	1.19	0.932	0.861	0.515	0.581	0.577	0.432	0.316	0.389	0.39	0.4	0.298	0.343	0.311	0.321	0.339	0.259	0.231
UMC-11	1.11	0.884	0.972	0.556	0.392	0.72	0.961	0.558	0.476	0.437	0.536	0.424	0.32	0.312	0.341	0.346	0.316	0.312	0.304	0.29
201T	1.05	1.17	1.06	0.988	0.83	1.04	1.09	1.1	1.07	1.17	0.614	0.568	0.651	0.587	0.439	0.362	0.373	0.34	0.322	0.363
ChaGo-K-1	0.574	0.537	0.612	0.509	0.452	0.909	1.01	0.826	0.717	0.682	0.565	0.564	0.606	0.478	0.353	0.956	0.98	0.911	0.869	0.97
NCI-H1650		0.146	0.241	0.194	0.186	0.185	0.171	0.215	0.189	0.196		0.296	0.257	0.256	0.178	0.248	0.366	0.281	0.244	0.254
LOU-NH91	0.321	0.368	0.285	0.667	0.307	0.504	0.492	0.513	0.442	0.481	0.561	0.506	0.514	0.519	0.48	0.544	0.539	0.47	0.506	0.52

From the supplement of paper PMC10307832
